The test system of series [1] is CCRF-CEM. Put plainly: cells. On the procedure:
(§1) To evaluate the cell lysis activity of CHM1, a cytotoxcity assay was conducted according to the method described in Chen H. et al., Biochim. Biophys. Acta 1336:171–179, 1997 and Wang W. et al., J. Biol. Chem. 273:27438–27448, 1998.
(§2) Anchorage-independent normal cells such as red blood cells and lymphoblast RPMI 7666 cells, and leukemia cell lines such as CCRF-CEM, HL-60, and Jurkat, K-562 cells were respectively maintained in RMPI-1640 culture media containing 10% FBS, 100 unit/ml penicillin G, and 100 μg/ml streptomycin. Cells of each type were seeded at 1×10^5/ml into a 25 cm^2 flask (Falcon) and cultured at 37° C. in the presence of 5% CO2 for two days. The cells were then centrifuged at 1000 rpm for 5 min. The resultant pellet was washed twice with the just-mentioned culture medium, resuspended in an RMPI-1640 medium containing 0.5% FBS, and cultured overnight.
(§3) Each of the above-prepared cell suspensions was adjusted so that it contained 1×10^5 cells/ml before being transferred into 9 wells of a 96-well plate (90 μl/well). The suspension in each well was mixed with 10 ul of a culture medium containing CHM1 freshly prepared from a […] stock solution so that the final concentrations in the 9 wells were 0, 1, 5, 10, 15, 20, 30, 50, and 100 μM, respectively. Triplicates for each well were set up. After incubating for 24 hours, a microtetrazolium (MTT)-based colorimetric assay was conducted. It is known that MTT can be metabolized by mitochondrial dehydrogenases in metabolically active cells to form a formazan salt, which has a strong absorption at 570 nm. To conduct the assay, 20 μl of a solution containing 5 mg/ml MTT (Boehringer Mannheim) was added to each of the wells mentioned above and a well containing 100 μl of PBS. The latter was used as a blank control. After incubating for 4 hours, 100 μl of a solution containing 10% SDS and […] HCl was added to each well. The plate was then incubated at 37° C. overnight. The absorbance at 570 nm of the mixture in each well was measured using a Bio-Rad model 450 microtiter plate reader. An average cell survival rate of each triplicate was determined based on the corresponding ΔA570nm relative to that of the well containing 0 μM CHM1. The survival rates thus obtained were plotted against corresponding CHM1 concentrations to form a cell survival curve and derive the IC50. Using the same procedure, also determined were the IC50s of other lytic polypeptides, such as cecropin B (CB), cecropin B1 (CB1), Melittin, and Magainin II, and cancer chemotherapeutic agents, such as doxorubicin (DOX), vincristine (VCR), methotrexate (MTX), 5-fluorouracil (5-Fu), cytarabine (Ara-C), 6-mercaptopurine (6-MP). At least three independent experiments were conducted for each of the polypeptides and agents.

Series [2] relates to HL-60. In words: cells. How it is done: as §1, §2, §3
For series [3], the system named is Jurkat. In words: cells. How it is done: as §1, §2, §3
Series [4] has as its system K-562. Put plainly: cells. How it is done: as §1, §2, §3
The subject of series [5] is stomach carcinoma (AGS) cells. In words: cells. On the procedure: as §1
(§4) Anchorage-dependent cells such as tissue cells (3T3 cells) or stomach carcinoma (AGS) cells were seeded at 1×10^4 cells/ml into a 25-cm^2 flask containing D-MEM medium supplemented with 10% FBS, 100 unit/ml penicillin G, and 100 μg/ml streptomycin. Cells were grown to about 80% confluence before being trypsinized. The trypsinized cells were resuspended in a D-MEM medium containing 0.5% FBS.
as §3

Series [6] relates to tissue cells (3T3 cells). In words: cells. On the procedure:
as §1, §4, §3

For series [7], the system named is red blood cells (RBCs). In words: Hemolysis of red blood cells. The series is classed as cell-based. Particulars: 200 μM. How it is done: as §2
Effects of CHM1, melittin, CB, CB1 and doxorubicin on red blood cells (RBCs) were also examined. […] In fact, about 15% of RBCs lysed after being treated with CHM1 (200 μM). In contrast, about 100%, 57%, 55%, and 20% of RBCs lysed after being treated by melittin, CB, CB1, and doxorubicin, respectively, at the same concentration.

The test system of series [8] is lymphoblast RPMI 7666 cells. Put plainly: cells. How it is done: as §1, §2, §3
Series [9] relates to CCRF-SB. In words: MTT-based cytotoxicity assay, CCRF-SB cancer cells. The class given is cell-based. Particulars: Homo sapiens, Table 2, 24 hours incubation. How it is done: as §1, §3
In general terms: Formazan colour is commonly taken as a measure of viable cells.

Setting [10] is: read-out: IC50, Leukemia cells CCRF-CEM, 24 hours incubation, MTT.
The mark [11] stands for this setting: read-out: IC50, Leukemia cells HL-60, Table 1, 24 hours incubation, MTT.
[12] abbreviates: read-out: IC50, Leukemia cells Jurkat, 24 hours incubation, MTT.
Where [13] appears, read: read-out: IC50, Leukemia cells K-562, 24 hours incubation, MTT.
The mark [14] stands for this setting: read-out: IC50, Stomach Carcinoma AGS, 24 hours incubation, MTT.
The mark [15] stands for this setting: read-out: IC50, Normal cells Tissue cells (3T3), 24 hours incubation, MTT.
Setting [16] is: read-out: IC50, Normal cells Lymphoblast (RPMI7666), Table 1, 24 hours incubation, MTT.
The mark [17] stands for this setting: Homo sapiens, HL-60, 24 h, read-out: IC50, Cancer Cells HL-60.
Setting [18] is: 24 h, read-out: IC50, Lymphoblasts RPMI 7666.

Where two headings read alike, the source gives them in different places. No end group written: not given here.

As to `CC[C@H](C)[C@H](NC(=O)CN)C(=O)NCC(=O)N[C@@H](C)C(=O)N[C@H](C(=O)N[C@@H](CC(C)C)C(=O)N[C@@H](CCCCN)C(=O)N[C@H](C(=O)N[C@@H](CC(C)C)C(=O)N[C@H](C(=O)N[C@H](C(=O)NCC(=O)N[C@@H](CC(C)C)C(=O)N1CCC[C@H]1C(=O)N[C@@H](C)C(=O)N[C@@H](CC(C)C)C(=O)N[C@H](C(=O)N[C@@H](CO)C(=O)N[C@@H](Cc1c[nH]c2ccccc12)C(=O)N[C@H](C(=O)N[C@@H](CCCCN)C(=O)N[C@@H](CCCNC(=N)N)C(=O)N[C@@H](CCCCN)C(=O)N[C@@H](CCCNC(=N)N)C(=O)N[C@@H](CCC(N)=O)C(=O)N[C@@H](CCC(N)=O)C(N)=O)[C@@H](C)CC)[C@@H](C)CC)[C@@H](C)O)[C@@H](C)O)C(C)C)C(C)C` [Melittin], the half-inhibitory concentration (IC50) (usually the concentration that gives 50% inhibition) worked out at 0.5 ± 0.02 µM in [1] (setting [10]); 0.8 ± 0.02 µM in [2] (setting [11]); 2.5 ± 0.1 µM in series [3] (setting [12]); 3.2 ± 0.3 µM in [4] (setting [13]); 0.6 ± 0.02 µM in [5] (setting [14]); 6 ± 0.03 µM in series [6] (setting [15]). The RBCs lysed entry in series [7] is listed as “about 100%”.
“KWKVFKKIEKMGRNIRNGIVKAGPAIAVLGEAKAL-NH2 [CB, cecropin B]”: the IC50 in series [1] (24 h) was 11.7 ± 1.3 µM; in series [2] (24 h), 18.5 ± 1.7 µM; in series [3] (24 h), 31.5 ± 3 µM; in series [4] (24 h) it was above 50 µM; in series [8] (setting [16]) it was above 200 µM; in series [5] (24 h), above 50 µM. Also, the IC50 in [6] (24 h) was above 50 µM.
On to GIGKFLHSAKKFGKAFVGEIMNS [Magainin II], for which the IC50 in [1] (24 h) is 32.9 ± 0.9 µM; in series [2] (24 h), 38.3 ± 3.2 µM; in [3] (24 h), 44 ± 2.4 µM; in series [4] (24 h), above 50 µM; in series [5] (24 h) it was 28.7 ± 5 µM; in series [6] (24 h), above 50 µM.
Consider `CC[C@]1(O)C[C@H]2CN(CCc3c([nH]c4ccccc34)[C@@](C(=O)OC)(c3cc4c(cc3OC)N(C=O)[C@H]3[C@@](O)(C(=O)OC)[C@H](OC(C)=O)[C@]5(CC)C=CCN6CC[C@]43[C@@H]65)C2)C1` [VCR, vincristine], for which the IC50 is 0.034 ± 0.01 µM in series [2] (setting [17]), 0.021 µM in series [8] (setting [18]) and 0.015 ± 0.01 µM in [9].
Regarding `Nc1ccn([C@@H]2O[C@H](CO)[C@@H](O)[C@@H]2O)c(=O)n1` [Ara-C, cytarabine], the IC50 in series [2] (setting [17]) was determined as 0.08 ± 0.02 µM; in series [8] (setting [18]), 0.3 ± 0.1 µM; in series [9], 0.1 ± 0.01 µM.
In the case of `Sc1ncnc2nc[nH]c12` [6-MP, 6-mercaptopurine], the results for the IC50 in [2] (setting [17]), in series [8] (setting [18]) and in series [9] were 0.43 ± 0.05 µM, 1.24 ± 0.3 µM and 0.44 ± 0.01 µM, respectively.
For “KWKVFKKIEKKWKVFKKIEKAGPKWKVFKKIEK [CHM1]”, the IC50 is 4.4 ± 0.3 µM in [1] (24 h); 6.7 ± 1.1 µM in series [2] (24 h); 10.1 ± 1.2 µM in series [3] (24 h); 8.5 ± 0.6 µM in series [4] (24 h); above 100 µM in series [8] (setting [16]); 5.6 ± 0.5 µM in [5] (24 h). The IC50 in series [6] (24 h) is above 50 µM. Moreover, in [8] (summary of Table 1), the “effect on normal lymphoblasts (in words)” value is “little effect”. Further, the “effect on normal tissue cells (in words)” value in series [6] (summary of Table 1) was “little effect”.
Regarding `O=c1[nH]cc(F)c(=O)[nH]1` [5-FU, 5-fluorouracil], the IC50 in series [2] (setting [17]) stood at 7.6 ± 10.5 µM; in [8] (setting [18]), 1.15 ± 0.4 µM; in [9] it was 123 ± 30.7 µM.
`CN(Cc1cnc2nc(N)nc(N)c2n1)c1ccc(C(=O)N[C@@H](CCC(=O)O)C(=O)O)cc1` [MTX, methotrexate]: the values for the IC50 in [2] (setting [17]), in series [8] (setting [18]) and in series [9] were 0.018 ± 0.01 µM, 0.132 ± 0.04 µM and 0.017 ± 0.01 µM, respectively.
On to cecropin B1 [CB1], for which the IC50 was 4.7 ± 0.2 µM in series [1] (setting [10]); 8.1 ± 0.9 µM in [2] (setting [11]); 4 ± 0.4 µM in series [3] (setting [12]); 15.6 ± 1.8 µM in series [4] (setting [13]); above 200 µM in series [8] (setting [16]); 7.1 ± 1.3 µM in series [5] (setting [14]). Also, the IC50 in series [6] (setting [15]) was above 50 µM.
For the molecule `COc1cccc2c1C(=O)c1c(O)c3c(c(O)c1C2=O)C[C@@](O)(C(=O)CO)C[C@@H]3O[C@H]1C[C@H](N)[C@H](O)[C@H](C)O1` [Doxorubicin, doxorubicin], the IC50 is 0.4 ± 0.1 µM in [1] (Homo sapiens, CCRF-CEM, 24 h, read-out: IC50, Leukemia cells CCRF-CEM); 0.19 ± 0.01 µM in series [2] (setting [17]); 0.19 ± 0.01 µM in series [2] (Homo sapiens, HL-60, 24 h, read-out: IC50, Leukemia cells HL-60); 0.4 ± 0.1 µM in series [3] (Homo sapiens, Jurkat, 24 h, read-out: IC50, Leukemia cells Jurkat); above 10 µM in [4] (Homo sapiens, K562, 24 h, read-out: IC50, Leukemia cells K-562); 1.86 ± 0.1 µM in series [8] (setting [18]). Also, the IC50 in [8] (24 h, read-out: IC50, Normal cells Lymphoblast (RPMI7666)) is 1.9 ± 0.1 µM; in series [5] (Homo sapiens, AGS, 24 h, read-out: IC50, Stomach Carcinoma AGS), 4.1 ± 0.4 µM; in [6] (Mus musculus, NIH3T3, 24 h, read-out: IC50, Normal cells Tissue cells (3T3)), 2 ± 0.7 µM; in [9] it was 0.46 ± 0.07 µM. In addition, the RBCs lysed in series [7] is recorded as around 20%.

These data come from patent US7122621B2, “Anti-cellular proliferative disorder polypeptide” (Academia Sinica, priority 2003, dated 2006).
